This series can be described thus: HILIC, Merck SeQuant ZIC-HILIC, 25 °C, 0.25 mL/min; A: water + 16 mM ammonium formate; B: acetonitrile + 0.1% formic acid, pH 3; gradient (min/%B) 0/97 2/97 10/70 15/10 17/10 18/97 25/97. Particulars: stereoisomer not certain.
Consider `CN=C(N)N` [METHYLGUANIDINE], for which the LC retention time came out at 12 min.
To `CSCC1OC(n2cnc3c(N)ncnc32)C(O)C1O` (stereo unspecified) [METHYLTHIOADENOSINE] belongs 4.75 min; to `COC(=O)Cc1ccc(O)cc1` [Methyl 4-hydroxyphenylacetate], 1.67 min.
To `CC(CC(=O)O)C(=O)O` (stereo unspecified) [Methyl-succinic acid] belongs 2.18 min; to `CC(=O)NCCCNCCCCNCCCN` [N1-ACETYLSPERMINE], 19.9 min; to `CC(C)=CCNc1ncnc2nc[nH]c12` [N6-(DELTA2-ISOPENTENYL)-ADENINE], 2.13 min.
Take `CNC(=O)c1cccnc1` [N methyl nicotinamide]: the LC retention time amounted to 2.15 min.
With `CC(=O)NC(CC(N)=O)C(=O)O` (stereo unspecified) [N-ACETYLASPARAGINE] the figure was 9.75 min.
Take `CC(=O)NC(CC(=O)O)C(=O)O` (stereo unspecified) [N-ACETYLASPARTATE]: the LC retention time is 8.76 min.
With `CC(=O)NC(CSSCC(NC(C)=O)C(=O)O)C(=O)O` (stereo unspecified) [N-ACETYLCYSTEINE-dimere] the figure was 13.2 min; with `CC(=O)NC(CS)C(=O)O` (stereo unspecified) [N-ACETYLCYSTEINE], 3.43 min.
Take `CC(=O)NC(CCC(=O)O)C(=O)O` (stereo unspecified) [N-ACETYLGLUTAMATE]: the LC retention time turned out to be 8.36 min.
To `CC(=O)NCC(=O)O` [N-ACETYLGLYCINE] belongs 4.93 min.
To `CSCCC(NC(C)=O)C(=O)O` (stereo unspecified) [N-ACETYLMETHIONINE] belongs 2.18 min; to `CC(=O)NC(Cc1ccccc1)C(=O)O` (stereo unspecified) [N-ACETYLPHENYLALANINE], 1.95 min.
With `CC(=O)NCCCCN` [N-ACETYLPUTRESCINE] the figure was 12.9 min; with `CC(=O)NC(CO)C(=O)O` (stereo unspecified) [N-ACETYLSERINE], 8.33 min.
For `CC(=O)NCCc1c[nH]c2ccc(O)cc12` [N-ACETYLSEROTONIN], the LC retention time worked out at 2.15 min.
To `CC(=O)NC(Cc1c[nH]c2ccccc12)C(=O)O` (stereo unspecified) [N-ACETYLTRYPTOPHAN] belongs 2.15 min.
To `CC(=O)N[C@@H](Cc1ccc(O)cc1)C(=O)O` [N-Acetyl-L-tyrosine] belongs 2.16 min; to `CC(=O)NC1C(O)CC(O)(C(=O)O)OC1C(O)C(O)CO` (stereo unspecified) [N-Acetylneuraminic acid], 13.9 min.
Regarding `O=CNCC(=O)O` [N-FORMYLGLYCINE], the LC retention time stood at 5.34 min.
With `CNC(CCC(=O)O)C(=O)O` (stereo unspecified) [N-METHYLGLUTAMATE] the figure was 13.9 min; with `C[N+](C)(C)CCCCC(N)C(=O)[O-]` (stereo unspecified) [N-N-N-TRIMETHYLLYSINE], 16.5 min; with `c1ccc(CNc2ccccc2)cc1` [N-benzylaniline], 1.54 min.
Turning to `Cn1cc(C(N)=O)ccc1=O` [N-methyl-2-pyridone-5-carboxamide], the LC retention time was 2.21 min.
To `NC(=O)C1=CN(C2OC(COP(=O)(O)OP(=O)(O)OCC3OC(n4cnc5c(N)ncnc54)C(OP(=O)(O)O)C3O)C(O)C2O)C=CC1` (stereo unspecified) [NADPH] belongs 15 min; to `CCCCCCCCC=CCCCCCCCCCCCCCC(=O)[O-]` [NERVONATE], 1.52 min.
With `NC(=O)c1ccc[n+](C2OC(COP(=O)(O)OP(=O)(O)OCC3OC(n4cnc5c(=O)[nH]cnc54)C(O)C3O)C(O)C2O)c1` (stereo unspecified) [NICOTINAMIDE HYPOXANTHINE DINUCLEOTIDE] the figure was 14.8 min; with `NC(=O)c1ccc[n+](C2OC(COP(=O)([O-])O)C(O)C2O)c1` (stereo unspecified) [NICOTINAMIDE MONONUCLEOTIDE], 14.7 min; with `Nc1ncnc2c1ncn2C1OC(COP(=O)(O)OP(=O)([O-])OCC2OC([n+]3cccc(C(=O)O)c3)C(O)C2O)C(O)C1OP(=O)(O)O` (stereo unspecified) [NICOTINIC ACID ADENINE DINUCLEOTIDE PHOSPHATE], 15.3 min.
For `NCC(O)c1ccc(O)c(O)c1` (stereo unspecified) [NORADRENALINE], the LC retention time was 13.4 min.
With `CCCCC(N)C(=O)O` (stereo unspecified) [NORLEUCINE] the figure was 11.2 min; with `NCCCNCCCN` [NORSPERMIDINE], 19.4 min; with `O=C(O)c1cccnc1` [Nicotinic acid], 2.81 min.
For `CC(=O)OCC(N)C(=O)O` (stereo unspecified) [O-ACETYLSERINE], the LC retention time turned out to be 12.4 min.
Take `NC(CCOC(=O)CCC(=O)O)C(=O)O` (stereo unspecified) [O-SUCCINYL-HOMOSERINE]: the LC retention time is 13.3 min.
With `O=C(O)CCCCCCCCCCCO` [OMEGA-HYDROXYDODECANOATE] the figure was 1.7 min; with `CCC(NC(=O)CCC(N)C(=O)O)C(=O)NCC(=O)O` (stereo unspecified) [OPHTHALMATE], 14.1 min.
With `O=C([O-])c1cc(=O)[nH]c(=O)[nH]1` [OROTATE] the figure was 10.9 min; with `O=C(O)C(=O)O` [OXALATE], 17.5 min.
With `NCC(O)c1ccc(O)cc1` (stereo unspecified) [P-OCTOPAMINE] the figure was 12.4 min; with `OCC1OC(OCC2OC(O)(CO)C(O)C2O)C(O)C(O)C1O` (stereo unspecified) [PALATINOSE], 13.6 min.
Regarding `NCCc1ccccc1` [PHENETHYLAMINE], the LC retention time came out at 10.2 min.
To `NCC(O)c1ccccc1` (stereo unspecified) [PHENYLETHANOLAMINE] belongs 10.9 min.
With `O=C(O)C(=O)Cc1ccccc1` [PHENYLPYRUVATE] the figure was 2.18 min; with `C=C(OP(=O)(O)O)C(=O)[O-]` [PHOSPHOENOLPYRUVATE], 14.7 min; with `O=C(O)CP(=O)(O)O` [PHOSPHONOACETATE], 14.3 min.
With `O=P(O)(O)OCC1OC(OP(=O)(O)OP(=O)(O)O)C(O)C1O` (stereo unspecified) [PHOSPHORIBOSYL PYROPHOSPHATE] the figure was 15.7 min; with `C[N+](C)(C)CCOP(=O)(O)O` [PHOSPHORYLCHOLINE], 15.6 min.
With `CC(=CCC1=C(C)C(=O)c2ccccc2C1=O)CCCC(C)CCCC(C)CCCC(C)C` (stereo unspecified) [PHYLLOQUINONE], the LC retention time was 1.49 min.
To `C=Cc1c(C)c2cc3[nH]c(cc4nc(cc5nc(cc1[nH]2)C(C)=C5CCC(=O)O)C(CCC(=O)O)=C4C)c(C)c3C=C` [PROTOPORPHYRIN] belongs 1.81 min; to `NCCCCN` [PUTRESCINE], 17.4 min.
In the case of `Cc1ncc(COP(=O)(O)O)c(C=O)c1O` [PYRIDOXAL-PHOSPHATE], the LC retention time is 11.8 min.
To `Cc1ncc(CO)c(C=O)c1O` [PYRIDOXAL] belongs 8.23 min; to `Cc1ncc(CO)c(CN)c1O` [PYRIDOXAMINE], 14.6 min; to `Cc1ncc(CO)c(CO)c1O` [PYRIDOXINE], 10.4 min.
For `O=C(O)c1ccc[nH]1` [PYRROLE-2-CARBOXYLATE], the LC retention time came to 2.08 min.
With `O=C(O)c1cccc[n+]1[O-]` [Picolinic acid N-oxide] the figure was 1.9 min.
With `CC(=O)C1CCC2C3CCC4=CC(=O)CCC4(C)C3CCC12C` (stereo unspecified) [Progesterone] the figure was 1.58 min; with `O=C(O)c1cccnc1C(=O)O` [QUINOLINATE], 8.88 min; with `c1ccc2ncccc2c1` [QUINOLINE], 2.14 min.
With `O=c1c(OC2OC(CO)C(O)C(O)C2O)c(-c2ccc(O)c(O)c2)oc2cc(O)cc(O)c12` [Quercetin-3-beta-D-glucoside] the figure was 9.37 min; with `OCC1OC(OCC2OC(OC3(CO)OC(CO)C(O)C3O)C(O)C(O)C2O)C(O)C(O)C1O` (stereo unspecified) [RAFFINOSE], 14.6 min.
As for `CC(=O)Oc1cccc(O)c1` [RESORCINOL MONOACETATE], the LC retention time was found to be 1.71 min.
To `O=C(C=Cc1ccc(O)c(O)c1)OC(Cc1ccc(O)c(O)c1)C(=O)O` (stereo unspecified) [ROSMARINATE] belongs 8.82 min; to `C[S+](CCC(N)C(=O)[O-])CC1OC(n2cnc3c(N)ncnc32)C(O)C1O` (stereo unspecified) [S-ADENOSYLMETHIONINE], 15.9 min.
As to `NC(CSCC(=O)O)C(=O)O` (stereo unspecified) [S-CARBOXYMETHYLCYSTEINE], the LC retention time is 14.4 min.
As for `NC(=O)c1ccccc1O` [SALICYLAMIDE], the LC retention time turned out to be 1.74 min.
For `O=C(O)c1ccccc1O` [SALICYLATE], the LC retention time was determined as 1.81 min.
To `CC1NCCc2cc(O)c(O)cc21` (stereo unspecified) [SALSOLINOL] belongs 11.1 min; to `CNCC(=O)O` [SARCOSINE], 13.6 min; to `NCC[Se][Se]CCN` [SELENOCYSTAMINE], 16.9 min.
On to `CC=CC=CC(=O)O` [SORBATE], for which the LC retention time is 1.8 min.
To `NCCCCNCCCN` [SPERMIDINE] belongs 19.5 min; to `CCCCCCCCCCCCCCCC(O)C(N)CO` (stereo unspecified) [SPHINGANINE], 9.91 min; to `CCCCCCCCCCCCCC=CC(O)C(COP(=O)([O-])OCC[N+](C)(C)C)NC(=O)CCCCCCCCCCCCCCCCC` (stereo unspecified) [SPHINGOMYELIN], 10.8 min.
`OCC1OC(OCC2OC(OCC3OC(OC4(CO)OC(CO)C(O)C4O)C(O)C(O)C3O)C(O)C(O)C2O)C(O)C(O)C1O` (stereo unspecified) [STACHYOSE]: the LC retention time came out at 15.1 min.
To `CCCCCCCCCCCCCCCCCC(=O)O` [STEARATE] belongs 1.56 min; to `O=C(O)CCCCCCC(=O)O` [SUBERATE], 1.91 min.
Consider `O=C(O)CCCCCCCCC(=O)O` [Sebacic acid], for which the LC retention time turned out to be 1.88 min.
To `O=C(O)C(O)C(O)C(=O)O` (stereo unspecified) [TARTRATE D] belongs 14.2 min; to `Cc1ncc(C[n+]2csc(CCOP(=O)(O)O)c2C)c(N)n1` [THIAMINE MONOPHOSPHATE], 16.4 min.
In the case of `Cc1ncc(C[n+]2csc(CCOP(=O)([O-])OP(=O)(O)O)c2C)c(N)n1` [THIAMINE PYROPHOSPHATE], the LC retention time came to 16.5 min.
In the case of `Cc1ncc(C[n+]2csc(CCO)c2C)c(N)n1` [THIAMINE], the LC retention time came to 14.3 min.
Regarding `NC(N)=S` [THIOUREA], the LC retention time is 5.07 min.

Source of the values: the RepoRT retention time repository.
